Reference: patent US5037980A, “Phenyl imidazo[1,2-a]pyrimidines” (American Cyanamid Company, priority 1988, dated 1991)

What was measured:
[1] = system: brain-specific receptors; test: Inhibition of the binding of 3H-benzodiazepine to brain-specific receptors of rats; parameters: species or system rat (Wistar); settings: 3H-flunitrazepam, rat whole cortex P2-synaptosomal fraction, pH 7.5, 30 minutes, 0° C.; test compound concentration not given
[2] = system: spontaneously hypertensive rats; test: Mean arterial blood pressure in spontaneously hypertensive rats; assay type: in vivo, Okamoto strain); settings: 100 mg/kg by gavage at 0 and 24 hours, measured at 28 hours, 1 rat; average of SHR used 170+1.5 mm of mercury
Procedure: The novel compounds of the present invention were tested for hypotensive activity by the method of P. S. Chan and D. W. Poorwin, Clin. Exptl. Hypertension, 1 (6): 817 (1979). Male, 16-20 week old, spontaneously hypertensive rats (SHR) of the Okamoto strain, from Taconic Farms, Germantown, New York, having an average mean arterial blood pressure of 170+1.5 mm of mercury are used in the test. One male adult SHR weighing about 300 g is dosed by gavage with a test compound, suspended in 2% pre-boiled starch at a concentration of 50 mg/ml, at a dose of 100 mg/kg of body weight or less, with 0.9% sodium chloride loading at a dose of 25 ml/kg of body weight, at zero hours. A second indentical dose of the test compound, without sodium chloride loading in given 24 hours later. At 28 hours after the initial dose the mean arterial blood pressure is measured by the method of Chan and Poorwin vide supra. The results of this test on representative compounds of the present invention appear below in Table IV.

[3] = system: clonic seizures caused by pentylenetetrazole in rats; test: Protection against clonic seizures caused by pentylenetetrazole in rats; assay type: in vivo, rat; settings: oral or i.p., pentylenetetrazole 23 mg/kg i.v. at 30 or 60 minutes
Procedure: The anti-anxiety properties of the novel compounds of the present invention have been established in a test which indicates anxiolytic activity by the measure of protection from convulsions resulting from the administration of pentylenetetrazole. Single or graded dose levels of the test compounds were administered orally or intraperitoneally in a 2% starch vehicle containing 0.5% v/v polyethylene glycol and one drop of polysorbate 80 or distilled water and one drop of polysorbate 80 to groups of at least 4 rats. At 30 or 60 minutes, the rats were treated intravenously with pentylenetetrazole at a dose of 23 mg/kg of body weight. This dose is estimated to cause clonic seizures in 99% of unprotected rats. It has been reported [R. T. Hill and D. H. Tedeschi, "Animal Testing and Screening Procedures in Evaluating Psychotropic Drugs" in "An Introduction to Psychopharmacology", Eds. R. R. Rech and K. E. Moore, Raven Press, New York, pp 237-288 (1971)] that there is a high degree of correlation between antagonism of pentylenetetrazole seizures in rats and anti-anxietyeffects in higher warm-blooded animals.

[4] = system: rats; test: Non-conditioned passive avoidance test in rats; assay type: in vivo, rat (Wistar); parameters: key: Active: considered active if the number of shocks received by the test group is significantly higher than the control group by the Mann-Whitney U test; settings: oral or i.p., 30 or 60 minutes before test
Procedure: Another test used to assess anti-anxiety effects is a non-conditioned passive avoidance procedure described by J. R. Vogel, B. Beer and D. E. Clody. "A Simple and Reliable Conflict Procedure for Testing Anti-Anxiety Agents", Psychopharmacologia, 21, 1-7 (1971). A conflict situation is induced in rats by a modification of this method.
Groups of 8 naive, Wistar strain male rats weighing 200-240 g each were deprived of water for 48 hours. The test compounds were administered in single or graded, oral or intraperitoneal doses, suspended in distilled water and one drop of polysorbate 80. Control animals received the vehicle alone. At 30 or 60 minutes each rat was placed in an individual clear plexiglass chamber. Tap water was available ad libitum from a nipple located in a black plexiglass box off the main chamber. A 0.7 milliampere AC shocking current was established between the stainless steel grid floor and the tap. After 20 licks of non-shocked drinking, a 2 second shocking current was administered to the rat. This ratio of 20 licks of non-shocked drinking followed by a 2 second shock was continued for a total of 3 minutes. The number of shocks taken by each rat during the 3 minute interval was recorded and compared to a control group.

Clc1ccc(-c2ccnc3nccn23)c(Cl)c1 [5-(2,4-Dichlorophenyl)imidazo-[1,2-a]pyrimidine]
% Inhibition of 3H-benzodiazepine binding [1]: 11% | Mean Arterial Blood Pressure [2]: 111

Cc1cc(-c2ccccc2F)n2ccnc2n1 [5-(2-Fluorophenyl)-7-methyl imidazo[1,2-a]pyrimidine]
% Inhibition of 3H-benzodiazepine binding [1]: 13%

Fc1ccccc1-c1ccnc2nccn12 [5-(2-Fluorophenyl)imidazo[1,2-a]-pyrimidine]
% Inhibition of 3H-benzodiazepine binding [1]: 49% | Mean Arterial Blood Pressure [2]: 121

COc1cc(-c2ccnc3nccn23)cc(OC)c1OC [5-(3,4,5-Trimethoxyphenyl)imidazo-[1,2-a]pyrimidine]
% of Rats Protected ([3]; dose 25 mg/kg): 75% | Mean Arterial Blood Pressure [2]: 147

Cc1cc(-c2ccc(Cl)c(Cl)c2)n2ccnc2n1 [5-(3,4-Dichlorophenyl)-7-methyl-imidazo-[1,2-a]pyrimidine]
% Inhibition of 3H-benzodiazepine binding [1]: 22% | Mean Arterial Blood Pressure [2]: 119

COc1ccc(-c2cc(C)nc3nccn23)cc1OC [5-(3,4-Dimethoxyphenyl)-7-methyl-imidazo[1,2-a]pyrimidine]
% Inhibition of 3H-benzodiazepine binding [1]: 46% | Mean Arterial Blood Pressure [2]: 148

Clc1cccc(-c2ccnc3nccn23)c1 [5-(3-Chlorophenyl)imidazo[1,2-a]-pyrimidine]
Result (non-conditioned passive avoidance) ([4]; dose 25.0 mg/kg): Active | % of Rats Protected ([3]; dose 25 mg/kg): 50% | % Inhibition of 3H-benzodiazepine binding [1]: 37% | Mean Arterial Blood Pressure [2]: 146

Brc1ccc(-c2ccnc3nccn23)cc1 [5-(4-Bromophenyl)imidazo[1,2-a]-pyrimidine]
Mean Arterial Blood Pressure [2]: 97

FC(F)(F)c1cccc(-c2ccnc3nccn23)c1 [5-(α,α,α-Trifluoro-m-tolyl)imidazo[1,2-a]pyrimidine]
Result (non-conditioned passive avoidance) ([4]; dose 25.0 mg/kg): Active | % of Rats Protected ([3]; dose 50 mg/kg): 100% | % Inhibition of 3H-benzodiazepine binding [1]: 46% | Mean Arterial Blood Pressure [2]: 126

COc1cc(-c2cc(C)nc3nccn23)cc(OC)c1OC [7-Methyl-5-(3,4,5-trimethoxy-phenyl)imidazo[1,2-a]pyrimidine]
Result (non-conditioned passive avoidance) ([4]; dose 35.0 mg/kg): Active | % Inhibition of 3H-benzodiazepine binding [1]: 10%

Cc1cc(-c2cccc(C(F)(F)F)c2)n2ccnc2n1 [7-Methyl-5-[3-(trifluoromethyl)phenyl]imidazo[1,2-a]pyrimidine]
% Inhibition of 3H-benzodiazepine binding [1]: 42% | Mean Arterial Blood Pressure [2]: 127

Cc1cc(-c2ccccc2)n2ccnc2n1 [7-Methyl-5-phenylimidazo[1,2-a]-pyrimidine]
% Inhibition of 3H-benzodiazepine binding [1]: 43%
